According to the supplement of paper PMC4862054:
Values joined by “and” are separate entries in the source; they are usually repeats but may differ in a detail not shown here. Identical values can stand only once.

test system: MDA-MB-453; assay: normalised viability (% of control), CellTiter-Blue; higher = more viable cells (about 100 = DMSO control); conditions: 100 nM; incubation time: 72 h
Method in brief: (§1)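 After 72 h on compound-loaded 384-well plates, breast cancer cell lines received 2.5 µl CellTiter-Blue reagent for 2 h at 37 °C. Fluorescence at 560/590 nm was scaled per plate so that vehicle was 100 and a positive kill control was 0. The value stands for normalised viability at a single listed concentration of the series.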

Row | Compound | normalised viability
1 | c1ccc(C2CN3CCSC3=N2)cc1 (stereo not given) [Tetramisole] | 98.5%
2 | COc1cc(Nc2ncc(F)c(Nc3ccc4c(n3)NC(=O)C(C)(C)O4)n2)cc(OC)c1OC [R406] | 108%
3 | O=P(O)(NCCCl)NCCCl [Ifosfamide mustard] | 107%

test system: BT-474; assay: as above; conditions: 1 nM; incubation time: 72 h
Method in brief: as §1

Row | Compound | normalised viability
4 | CC(C)(C)c1cc(NC(=O)Nc2ccc(-c3cn4c(n3)sc3cc(OCCN5CCOCC5)ccc34)cc2)no1 [Quizartinib] | 95.2%

same assay, conditions: 10 nM; incubation time: 72 h

Row | Compound | normalised viability
5 | CS(=O)(=O)CCNCc1ccc(-c2ccc3ncnc(Nc4ccc(OCc5cccc(F)c5)c(Cl)c4)c3c2)o1 [Lapatinib] | 97.6% and 106%
6 | COC1=C2C[C@@H](C)C[C@H](OC)[C@H](O)[C@@H](C)/C=C(\C)[C@H](OC(N)=O)[C@@H](OC)/C=C\C=C(/C)C(=O)NC(=CC1=O)C2=O [Geldanamycin] | 127%
7 | c1ccc(C2CN3CCSC3=N2)cc1 (stereo not given) [Tetramisole] | 111%
8 | COc1cc(Nc2ncc(F)c(Nc3ccc4c(n3)NC(=O)C(C)(C)O4)n2)cc(OC)c1OC [R406] | 133%
9 | O=P(O)(NCCCl)NCCCl [Ifosfamide mustard] | 128%

same assay, conditions: 100 nM; incubation time: 72 h

Row | Compound | normalised viability
10 | CC(C)(C)c1cc(NC(=O)Nc2ccc(-c3cn4c(n3)sc3cc(OCCN5CCOCC5)ccc34)cc2)no1 [Quizartinib] | 104%

same assay, conditions: 1000 nM; incubation time: 72 h

Row | Compound | normalised viability
11 | CC(C)(C)c1cc(NC(=O)Nc2ccc(-c3cn4c(n3)sc3cc(OCCN5CCOCC5)ccc34)cc2)no1 [Quizartinib] | 96.6%
12 | CS(=O)(=O)CCNCc1ccc(-c2ccc3ncnc(Nc4ccc(OCc5cccc(F)c5)c(Cl)c4)c3c2)o1 [Lapatinib] | 37.3% and 43.9%
13 | COC1=C2C[C@@H](C)C[C@H](OC)[C@H](O)[C@@H](C)/C=C(\C)[C@H](OC(N)=O)[C@@H](OC)/C=C\C=C(/C)C(=O)NC(=CC1=O)C2=O [Geldanamycin] | 18.5%
14 | c1ccc(C2CN3CCSC3=N2)cc1 (stereo not given) [Tetramisole] | 137%
15 | COc1cc(Nc2ncc(F)c(Nc3ccc4c(n3)NC(=O)C(C)(C)O4)n2)cc(OC)c1OC [R406] | 111%
16 | O=P(O)(NCCCl)NCCCl [Ifosfamide mustard] | 117%

same assay, conditions: 10000 nM; incubation time: 72 h

Row | Compound | normalised viability
17 | CS(=O)(=O)CCNCc1ccc(-c2ccc3ncnc(Nc4ccc(OCc5cccc(F)c5)c(Cl)c4)c3c2)o1 [Lapatinib] | 8.89% and 18.7%
18 | COC1=C2C[C@@H](C)C[C@H](OC)[C@H](O)[C@@H](C)/C=C(\C)[C@H](OC(N)=O)[C@@H](OC)/C=C\C=C(/C)C(=O)NC(=CC1=O)C2=O [Geldanamycin] | 16.4%
19 | c1ccc(C2CN3CCSC3=N2)cc1 (stereo not given) [Tetramisole] | 107%
20 | COc1cc(Nc2ncc(F)c(Nc3ccc4c(n3)NC(=O)C(C)(C)O4)n2)cc(OC)c1OC [R406] | 130%
21 | O=P(O)(NCCCl)NCCCl [Ifosfamide mustard] | 119%

test system: MDA-MB-231; assay: as above; conditions: 1 nM; incubation time: 72 h
Method in brief: as §1

Row | Compound | normalised viability
22 | CC(C)(C)c1cc(NC(=O)Nc2ccc(-c3cn4c(n3)sc3cc(OCCN5CCOCC5)ccc34)cc2)no1 [Quizartinib] | 104%

same assay, conditions: 10 nM; incubation time: 72 h

Row | Compound | normalised viability
23 | COC1=C2C[C@@H](C)C[C@H](OC)[C@H](O)[C@@H](C)/C=C(\C)[C@H](OC(N)=O)[C@@H](OC)/C=C\C=C(/C)C(=O)NC(=CC1=O)C2=O [Geldanamycin] | 102%
24 | c1ccc(C2CN3CCSC3=N2)cc1 (stereo not given) [Tetramisole] | 96.5%
25 | COc1cc(Nc2ncc(F)c(Nc3ccc4c(n3)NC(=O)C(C)(C)O4)n2)cc(OC)c1OC [R406] | 95.7%
26 | O=P(O)(NCCCl)NCCCl [Ifosfamide mustard] | 108%

same assay, conditions: 100 nM; incubation time: 72 h

Row | Compound | normalised viability
27 | CC(C)(C)c1cc(NC(=O)Nc2ccc(-c3cn4c(n3)sc3cc(OCCN5CCOCC5)ccc34)cc2)no1 [Quizartinib] | 118%

same assay, conditions: 1000 nM; incubation time: 72 h

Row | Compound | normalised viability
28 | CC(C)(C)c1cc(NC(=O)Nc2ccc(-c3cn4c(n3)sc3cc(OCCN5CCOCC5)ccc34)cc2)no1 [Quizartinib] | 89.7%
29 | CS(=O)(=O)CCNCc1ccc(-c2ccc3ncnc(Nc4ccc(OCc5cccc(F)c5)c(Cl)c4)c3c2)o1 [Lapatinib] | 85.8% and 109%
30 | COC1=C2C[C@@H](C)C[C@H](OC)[C@H](O)[C@@H](C)/C=C(\C)[C@H](OC(N)=O)[C@@H](OC)/C=C\C=C(/C)C(=O)NC(=CC1=O)C2=O [Geldanamycin] | 15.3%
31 | c1ccc(C2CN3CCSC3=N2)cc1 (stereo not given) [Tetramisole] | 91.7%
32 | COc1cc(Nc2ncc(F)c(Nc3ccc4c(n3)NC(=O)C(C)(C)O4)n2)cc(OC)c1OC [R406] | 77.2%
33 | O=P(O)(NCCCl)NCCCl [Ifosfamide mustard] | 124%

same assay, conditions: 10000 nM; incubation time: 72 h

Row | Compound | normalised viability
34 | CS(=O)(=O)CCNCc1ccc(-c2ccc3ncnc(Nc4ccc(OCc5cccc(F)c5)c(Cl)c4)c3c2)o1 [Lapatinib] | 52.9% and 52.4%
35 | COC1=C2C[C@@H](C)C[C@H](OC)[C@H](O)[C@@H](C)/C=C(\C)[C@H](OC(N)=O)[C@@H](OC)/C=C\C=C(/C)C(=O)NC(=CC1=O)C2=O [Geldanamycin] | 4.86%
36 | c1ccc(C2CN3CCSC3=N2)cc1 (stereo not given) [Tetramisole] | 104%
37 | COc1cc(Nc2ncc(F)c(Nc3ccc4c(n3)NC(=O)C(C)(C)O4)n2)cc(OC)c1OC [R406] | 52.5%
38 | O=P(O)(NCCCl)NCCCl [Ifosfamide mustard] | 86.6%

test system: Hs578T; assay: as above; conditions: 1 nM; incubation time: 72 h
Method in brief: as §1

Row | Compound | normalised viability
39 | CC(C)(C)c1cc(NC(=O)Nc2ccc(-c3cn4c(n3)sc3cc(OCCN5CCOCC5)ccc34)cc2)no1 [Quizartinib] | 67.6%

same assay, conditions: 10 nM; incubation time: 72 h

Row | Compound | normalised viability
40 | COC1=C2C[C@@H](C)C[C@H](OC)[C@H](O)[C@@H](C)/C=C(\C)[C@H](OC(N)=O)[C@@H](OC)/C=C\C=C(/C)C(=O)NC(=CC1=O)C2=O [Geldanamycin] | 122%
41 | c1ccc(C2CN3CCSC3=N2)cc1 (stereo not given) [Tetramisole] | 90.2%
42 | COc1cc(Nc2ncc(F)c(Nc3ccc4c(n3)NC(=O)C(C)(C)O4)n2)cc(OC)c1OC [R406] | 115%
43 | O=P(O)(NCCCl)NCCCl [Ifosfamide mustard] | 106%

same assay, conditions: 100 nM; incubation time: 72 h

Row | Compound | normalised viability
44 | CC(C)(C)c1cc(NC(=O)Nc2ccc(-c3cn4c(n3)sc3cc(OCCN5CCOCC5)ccc34)cc2)no1 [Quizartinib] | 119%

same assay, conditions: 1000 nM; incubation time: 72 h

Row | Compound | normalised viability
45 | CC(C)(C)c1cc(NC(=O)Nc2ccc(-c3cn4c(n3)sc3cc(OCCN5CCOCC5)ccc34)cc2)no1 [Quizartinib] | 93.2%
